According to US6548085B1, “Insecticidal compositions and method of controlling insect pests using same” (Woodstream Corporation, priority 1998, dated 2003):

Tests used:
Type in all cases: in vivo
German cockroaches = assay: Direct spray kill time test on German cockroaches; conditions: aqueous solution, sprayed 3 seconds, entry of 300 = no deaths during that time
Source text: (§1) To determine the effectiveness of an essential oil/sodium lauryl sulfate aerosol spray according to this invention as an insecticide when applied directly by a conventional pump spray on German cockroaches, American cockroaches and various ant species.
(§2) Insects shall be healthy and undeformed. Only adult male and female insects shall be used for testing purposes. The insects shall be contained in a 21.5×15.5×5.5 inch testing arena.
(§3) 1. Gather 10 adult insects, 5 males and 5 females.
(§4) 2. Place 1 insect into the testing arena.
(§5) 3. Select spray to be tested. Spray cockroaches for 3 seconds, ants for 2 seconds.
(§6) 4. Record kill time in seconds.
(§7) 5. Wipe away any spray residue before beginning another test.
(§8) 6. Repeat steps 2, 3, 4 and 5 until all test insects are used.
(§9) 7. Record date of testing, type of test material used, type of insect used, kill time in seconds, and whether or not test specimen meets standard.
(§10) Following this protocol, aqueous solutions of selected essential oils were prepared at different concentrations, both with and without the addition of sodium lauryl sulfate, and tested for their insecticidal activity (kill time in seconds) against German and American cockroaches and black or pavement ants. The results are tabulated below and illustrated graphically in the accompanying drawings.
(§11) ^3 The tests shown in the Tables utilized the active ingredients in an aqueous solution dispensed from a standard pump-type sprayer. Shorter kill times result when the insecticide is aerosolized, i.e., dispensed from a pressurized aerosol can using a propellant such as carbon dioxide.

American cockroaches = assay: Direct spray kill time test on American cockroaches; conditions: aqueous solution, sprayed 3 seconds, entry of 300 = no deaths during that time
Source text: as §1, §2, §3, §4, §5, §6, §7, §8, §9, §10, §11

Black Ants = assay: Direct spray kill time test on black ants; conditions: aqueous solution, sprayed 2 seconds, entry of 300 = no deaths during that time
Source text: as §1, §2, §3, §4, §5, §6, §7, §8, §9, §10, §11

Pavement Ants = assay: Direct spray kill time test on pavement ants; conditions: aqueous solution, pump sprayer, sprayed 2 seconds, entry of 300 = no deaths during that time
Source text: as §1, §2, §3, §4, §5, §6, §7, §8, §9, §10, §11

[1] = cinnamon oil series, pump sprayer
[2] = citronella oil series, pump sprayer
[3] = cornmint oil series, standard pump-type sprayer
[4] = grapefruit oil series, pump sprayer
[5] = peppermint oil series, pump sprayer
[6] = tangerine oil series, pump sprayer
[7] = orange sweet oil series, pump sprayer

Measured: Kill Time

CCCCCCCCCCCCOS(=O)(=O)[O-].[Na+] [100% SLS, sodium lauryl sulfate]
> 300^1 Seconds: German cockroaches; [3]
> 300 s: German cockroaches; [1] | German cockroaches; [2] | German cockroaches; [4] | German cockroaches; lemon oil series, pump sprayer | German cockroaches; lime oil series, pump sprayer | German cockroaches; orange sweet oil series, pump sprayer, repetitions of 10% OSO mixture not performed | German cockroaches; [5] | German cockroaches; [6] | American cockroaches; [1] | American cockroaches; [2] | American cockroaches; [3] | American cockroaches; [4] | American cockroaches; lemon oil series, pump sprayer | American cockroaches; lime oil series, pump sprayer | American cockroaches; [7] | American cockroaches; [5] | American cockroaches; [6] | Black Ants; [1] | Black Ants; [3] | Black Ants; [7] | Pavement Ants; citronella oil series | Pavement Ants; grapefruit oil series | Pavement Ants; lemon oil series | Pavement Ants; lime oil series | Pavement Ants; peppermint oil series | Pavement Ants; tangerine oil series
